{"source": "patent US7388027B2", "about": "“Bicyclic compounds as modulators of androgen receptor function and method” (Bristol-Myers Squibb Company, priority 2004, dated 2008)", "key": {"[1]": {"tested_on": "wild type AR (MDA 453 cells)", "conditions": "read-out: Kd for [3H]-DHT, Scatchard analysis, 4 h at 37° C.", "method": "For the whole-cell binding assay, human LNCaP cells (T877A mutant AR) or MDA 453 (wild type AR) in 96-well microtiter plates containing RPMI 1640 or DMEM supplemented with 10% charcoal stripped CA-FBS (Cocaleco Biologicals) respectively, were incubated at 37° C. to remove any endogenous ligand that might be complexed with the receptor in the cells.\nFor the saturation analysis, the difference between the total binding and the non-specific binding, was defined as specific binding. […] See e.g. D. Rodbard, Mathematics and statistics of ligand assays: an illustrated guide: In: J. Langon and J. J. Clapp, eds., Ligand Assay, Masson Publishing U.S.A., Inc., New York, pp. 45-99, (1981), the disclosure of which is herein incorporated by reference.\n[formula] After correcting for non-specific binding, IC50 values were determined. […] C2C12 Mouse Myoblast Transactivation Assay"}, "[2]": {"tested_on": "endogenous glucocorticoid receptor (A549 cells, AP-1 luciferase reporter)", "experiment": "In vitro assay to measure GR-induced AP-1 transrepression (luciferase reporter in A549 cells)", "format": "cell-based", "conditions": "concentration of ≦10 μM; 10 ng/mL PMA; 7 h; typical value", "protocol": "The AP-1 assay is a cell-based luciferase reporter assay. A549 cells, which contain endogenous glucocorticoid receptor, were stably transfected with an AP-1 DNA binding site attached to the luciferase gene. Cells are then grown in RPMI+10% fetal calf serum (charcoal-treated)+Penicillin/Streptomycin with 0.5 mg/mL geneticin. Cells are plated the day before the assay at approximately 40000 cells/well. On assay day, the media is removed by aspiration and 20 μL assay buffer (RPMI without phenol red+10% FCS (charcoal-treated)+Pen/Strep) is added to each well. At this point either 20 μL assay buffer (control experiments), the compounds of the present invention (“test compounds”) (dissolved in DMSO and added at varying concentrations) or dexamethasome (100 nM in DMSO, positive control) are added to each well. The plates are then pre-incubated for 15 min at 37° C., followed by stimulation of the cells with 10 ng/mL PMA. The plates are then incubated for 7 h at 37° C. after which 40 μL luciferase substrate reagent is added to each well. Activity is measured by analysis in a luminometer as compared to control experiments treated with buffer or dexamethasome."}, "[3]": {"target": "T1, AR (Rattus norvegicus, UniProt P15207)", "T1 sequence (P15207 1-902)": "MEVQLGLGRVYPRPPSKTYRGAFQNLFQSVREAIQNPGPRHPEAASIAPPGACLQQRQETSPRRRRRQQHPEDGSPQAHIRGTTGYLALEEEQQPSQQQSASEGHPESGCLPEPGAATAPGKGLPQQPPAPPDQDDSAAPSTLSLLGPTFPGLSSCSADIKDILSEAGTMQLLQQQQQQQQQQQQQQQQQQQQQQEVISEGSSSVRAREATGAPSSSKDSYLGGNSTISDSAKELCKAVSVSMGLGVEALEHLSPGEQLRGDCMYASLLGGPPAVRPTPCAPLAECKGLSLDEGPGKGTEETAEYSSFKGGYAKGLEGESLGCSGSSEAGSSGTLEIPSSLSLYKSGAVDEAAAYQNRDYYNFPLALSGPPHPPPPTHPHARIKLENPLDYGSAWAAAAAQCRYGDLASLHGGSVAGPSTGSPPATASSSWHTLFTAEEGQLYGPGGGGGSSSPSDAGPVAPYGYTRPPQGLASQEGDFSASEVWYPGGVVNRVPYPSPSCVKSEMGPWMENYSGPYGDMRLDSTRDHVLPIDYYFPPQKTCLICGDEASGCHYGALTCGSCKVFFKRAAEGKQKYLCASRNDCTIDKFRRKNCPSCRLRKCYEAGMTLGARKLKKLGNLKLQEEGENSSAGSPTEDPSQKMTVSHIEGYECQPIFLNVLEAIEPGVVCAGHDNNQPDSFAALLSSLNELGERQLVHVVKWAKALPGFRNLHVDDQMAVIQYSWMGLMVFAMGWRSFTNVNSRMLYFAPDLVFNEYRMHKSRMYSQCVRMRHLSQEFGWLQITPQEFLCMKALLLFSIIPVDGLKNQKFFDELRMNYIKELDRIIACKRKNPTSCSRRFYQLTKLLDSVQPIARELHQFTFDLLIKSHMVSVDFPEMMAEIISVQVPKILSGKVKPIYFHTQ", "description": "The activity of compounds of the present invention as AR agonists was investigated in an immature male rat model, a recognized test of anabolic effects in muscle and sustaining effects in sex organs for a given compound, as described in L. G. Hershberger et al., Proc. Soc. […] Biol. Med., 83, 175 (1953); B. L. Beyler et al, “Methods for evaluating anabolic and catabolic agents in laboratory animals”, J. Amer. Med. Women's Ass., 23, 708 (1968); H. Fukuda et al., “Investigations of the levator ani muscle as an anabolic steroid assay”, Nago Dai. Yak. Ken. Nem. 14, 84 (1966) the disclosures of which are herein incorporated by reference.\nThe basis of this assay lies in the well-defined action of androgenic agents on the maintenance and growth of muscle tissues and sexual accessory organs in animals and man. […] J. Anat. […] I. Quantitative data” Boll.-Soc. Ital. Biol. Sper. […] II. Electron-microscopic observations” Boll.-Soc. Ital. Biol. Sper. 42, 1600 (1966); A. Boris et al., Steroids 15, 61 (1970). As described above, the effects of androgens on maintenance of male sexual accessory organs, such as the prostate and seminal vesicles, is well described. Castration results in rapid involution and atrophy of the prostate and seminal vesicles. This effect can be reversed by exogenous addition of androgens. […]"}}, "note": "pKd: −log10 of the molar value.", "data": [{"compound": "tritiated dihydrotestosterone [[^3H]-DHT]", "values": [{"measurement": "pKd", "setting": "[1]", "result": 9.15}]}, {"compound": "C[C@@H]1C[C@H]2[C@@H]3CCC4=CC(=O)C=C[C@]4(C)[C@@]3(F)[C@@H](O)C[C@]2(C)[C@@]1(O)C(=O)CO", "note": "[dexamethasone]", "values": [{"measurement": "suppression of activity (% inhibition of the reporter system vs buffer control with PMA alone)", "setting": "[2]", "result": 65, "unit": "%"}]}, {"compound": "CCC(=O)O[C@H]1CC[C@H]2[C@@H]3CCC4=CC(=O)CC[C@]4(C)[C@H]3CC[C@]12C", "note": "[TP, testosterone propionate]", "values": [{"measurement": "EC50 (increase in organ weight)", "setting": "[3]; immature castrated rats", "result": "~0.03", "unit": "mg"}, {"measurement": "potency relative to free T", "setting": "[3]; organ weight increase, rats", "result": "10-30 fold"}]}]}
